Several values for one entry are separate records, joined by “and”; a condition that tells them apart may be missing. Equal values may be shown once.
Test: Vitamin B3 in vivo skin penetration study #2: Tape Stripping Method, magnetic vs non-magnetic applicator
Set-up: species or system human; amount of niacinamide recovered from tape strip / amount of niacinamide recovered from tape strip, Avg / amount of niacinamide recovered, Sum 2-10 / amount of niacinamide recovered, Sum 2-10, Avg / amount of niacinamide recovered, Sum 6-10 / amount of niacinamide recovered, Sum 6-10, Avg: unit not given here
Settings: for amount of niacinamide recovered from tape strip, Avg / amount of niacinamide recovered, Sum 2-10, Avg / amount of niacinamide recovered, Sum 6-10, Avg: average across all 10 test sites; for amount of niacinamide recovered, Sum 2-10, Avg / amount of niacinamide recovered, Sum 2-10: sum of strips 2-10; for amount of niacinamide recovered, Sum 6-10, Avg / amount of niacinamide recovered, Sum 6-10: sum of strips 6-10
Experimental: This method provides a suitable means of measuring the amount of skin care active present in skin, and comparing active versus passive application of the skin care active. Two identical circular areas of 7.9 cm^2 were marked on the volar forearms of volunteers. A measured dose (approximately 9 mg) of the skin care formulation (ingredients shown in Table 1) was applied to the delineated areas using a screw actuated syringe. Active application was carried out using purpose made applicators having a metallic aluminium skin contact surface behind which was the magnetic array. The cream was spread evenly across the entire delineated region using the applicator in a sweeping motion with a fixed speed of approximately 3.5 cm/s to mimic normal finger application. Passive application was performed using the tip of a finger in a sweeping motion identical to that of application using the applicator. The application period was 30 seconds during which time visual inspection was used to ensure even distribution and absorption of the formulation by skin. The application area was then left uncovered for a further 30 minutes to ensure complete absorption. The application area was then wiped thoroughly to remove any surface material, followed by carrying out tape stripping.
The Tape Stripping Method can be carried out using commercial pre-cut 22.1 mm tape stripping adhesive discs (D-SQUAME brand tape strips from Cuderm Corporation or equivalent) with an adhesive area of 3.8 cm^2. A 22.1 mm diameter circular region was marked at the center of the application area. A tape stripping adhesive disc was placed over the marked area and even pressure applied using a neoprene roller, rolled ten times over the surface. The adhesive disc was removed from the skin surface in a single pulling motion using manual tweezers. To ensure even removal of the stratum corneum, subsequent discs were removed in a north, south, east and west orientation. Each adhesive disc was non-destructively analyzed for relative protein content using the SquameScan™ 850 instrument (Heiland Electronics Wetzlar Germany). The adhesive disc was then immediately placed into a glass vial containing extraction solvent in preparation for subsequent analysis. Solvent extractions are conducted on each tape strip using conventional extraction methods, which are well known to those of ordinary skill in the art, and measuring the amount of niacinamide present in the extract, for example, by high performance liquid chromatography (“HPLC”) and/or mass spectrometry.
In this example, 5 test subjects (A to E in Tables 13 and 14) were selected. […] The applicator used for active application included Array #8 from Table 2. The applicator used for passive application was the same as the one used for active application except without the magnetic array. Each forearm included an active application test site and a passive application site for a total of 10 active test sites and 10 passive sites. The application time was 30 seconds with a speed of motion of approximately 3 cm per second, equating to a gentle rubbing action. Application of the composition was followed by a 30 minute absorption period. […] The level of niacinamide recovered from each tape strip was measured using HPLC.
The average value across all test sites is shown in the second to last cell of the row. The standard error of the mean (SEM) is shown in the last column of Tables 13 and 14. The SEM is calculated by dividing the standard deviation by the square root of the number of test sites. The active versus passive application results from Tables 13 and 14 are graphically illustrated in FIG. 7.
The enhancement values shown in Table 15 are calculated by dividing the active value from Table 14 by the passive value from Table 13. The average shown in the last column of Table 15 is calculated by averaging the enhancement values of all the test sites. […]

[1] = active value divided by passive value, average of all test sites
[2] = active value divided by passive value, individual test sites, Subjects A-E, Site 1/2
[3] = Active Application (magnetic applicator, Array #8)
[4] = Active Application (magnetic applicator, Array #8), individual test sites, Subjects A-E, Site 1/2
[5] = Passive Application (non-magnetic applicator)
[6] = Passive Application (non-magnetic applicator), individual test sites, Subjects A-E, Site 1/2

## NC(=O)c1cccnc1 [niacinamide]
[1]
  Enhancement value Strips 2-10, Avg: 1.47
  Enhancement value Strips 6-10, Avg: 1.46
[2]
  Enhancement value Strips 2-10: 1.63 and 1.35 and 1.77 and 1.47 and 1.51 and 1.26 and 1.19 and 1.39 and 1.59 and 1.54
  Enhancement value Strips 6-10: 1.53 (2×) and 1.34 and 1.71 and 1.41 and 1.83 and 1.19 and 1.21 and 1.39 and 1.43
Magnetic applicator vs non-magnetic applicator
  niacinamide delivered into the skin, active compared to passive application: about 1.5 ×
Strip 1, Active Application (magnetic applicator, Array #8)
  amount of niacinamide recovered from tape strip, Avg: 4.43
Strip 1, Passive Application (non-magnetic applicator)
  amount of niacinamide recovered from tape strip, Avg: 3.87
Strip 1, Passive Application (non-magnetic applicator), individual test sites, Subjects A-E, Site 1/2
  amount of niacinamide recovered from tape strip: 2.62 and 3.31 and 3.07 and 2.86 and 3.16 and 5.69 and 4.14 and 6.28 and 0.54 and 7.00
Strip 2, Active Application (magnetic applicator, Array #8)
  amount of niacinamide recovered from tape strip, Avg: 6.10
Strip 2, Passive Application (non-magnetic applicator)
  amount of niacinamide recovered from tape strip, Avg: 4.12
Strip 2, Passive Application (non-magnetic applicator), individual test sites, Subjects A-E, Site 1/2
  amount of niacinamide recovered from tape strip: 2.66 and 3.81 and 2.71 and 2.52 and 4.24 and 7.80 and 5.47 and 7.28 and 1.84 and 2.88
Strip 3, Active Application (magnetic applicator, Array #8)
  amount of niacinamide recovered from tape strip, Avg: 8.37
Strip 3, Passive Application (non-magnetic applicator)
  amount of niacinamide recovered from tape strip, Avg: 5.69
Strip 3, Passive Application (non-magnetic applicator), individual test sites, Subjects A-E, Site 1/2
  amount of niacinamide recovered from tape strip: 3.51 and 5.43 and 6.33 and 3.77 and 6.64 and 7.64 and 6.14 and 9.62 and 2.43 and 5.36
Strip 4, Active Application (magnetic applicator, Array #8)
  amount of niacinamide recovered from tape strip, Avg: 8.25
Strip 4, Passive Application (non-magnetic applicator)
  amount of niacinamide recovered from tape strip, Avg: 6.18
Strip 4, Passive Application (non-magnetic applicator), individual test sites, Subjects A-E, Site 1/2
  amount of niacinamide recovered from tape strip: 4.22 and 2.79 and 8.53 and 4.24 and 7.48 and 7.15 and 5.87 and 11.29 and 1.29 and 8.91
Strip 5, Active Application (magnetic applicator, Array #8)
  amount of niacinamide recovered from tape strip, Avg: 7.68
Strip 5, Passive Application (non-magnetic applicator)
  amount of niacinamide recovered from tape strip, Avg: 4.91
Strip 5, Passive Application (non-magnetic applicator), individual test sites, Subjects A-E, Site 1/2
  amount of niacinamide recovered from tape strip: 4.57 and 3.79 and 6.08 and 2.74 and 6.35 and 6.21 and 5.61 and 7.10 and 2.27 and 4.36
Strip 6, Active Application (magnetic applicator, Array #8)
  amount of niacinamide recovered from tape strip, Avg: 7.02
Strip 6, Passive Application (non-magnetic applicator)
  amount of niacinamide recovered from tape strip, Avg: 4.72
Strip 6, Passive Application (non-magnetic applicator), individual test sites, Subjects A-E, Site 1/2
  amount of niacinamide recovered from tape strip: 4.37 and 3.42 and 6.69 and 1.97 and 5.29 and 7.95 and 4.56 and 6.46 and 2.62 and 3.85
Strip 7, Active Application (magnetic applicator, Array #8)
  amount of niacinamide recovered from tape strip, Avg: 5.52
Strip 7, Passive Application (non-magnetic applicator)
  amount of niacinamide recovered from tape strip, Avg: 3.66
Strip 7, Passive Application (non-magnetic applicator), individual test sites, Subjects A-E, Site 1/2
  amount of niacinamide recovered from tape strip: 3.57 and 3.37 and 4.35 and 1.87 and 3.82 and 6.89 and 5.41 and 0.19 and 2.67 and 4.47
Strip 8, Active Application (magnetic applicator, Array #8)
  amount of niacinamide recovered from tape strip, Avg: 4.63
Strip 8, Passive Application (non-magnetic applicator)
  amount of niacinamide recovered from tape strip, Avg: 3.43
Strip 8, Passive Application (non-magnetic applicator), individual test sites, Subjects A-E, Site 1/2
  amount of niacinamide recovered from tape strip: 2.65 and 2.92 and 2.85 and 1.56 and 4.65 and 5.34 and 2.94 and 5.75 and 1.88 and 3.71
Strip 9, Active Application (magnetic applicator, Array #8)
  amount of niacinamide recovered from tape strip, Avg: 5.11
Strip 9, Passive Application (non-magnetic applicator)
  amount of niacinamide recovered from tape strip, Avg: 3.59
Strip 9, Passive Application (non-magnetic applicator), individual test sites, Subjects A-E, Site 1/2
  amount of niacinamide recovered from tape strip: 2.95 and 2.37 and 2.24 and 2.00 and 3.78 and 6.70 and 2.79 and 7.20 and 2.15 and 3.70
Strip 10, Active Application (magnetic applicator, Array #8)
  amount of niacinamide recovered from tape strip, Avg: 4.48
Strip 10, Passive Application (non-magnetic applicator)
  amount of niacinamide recovered from tape strip, Avg: 3.20
Strip 10, Passive Application (non-magnetic applicator), individual test sites, Subjects A-E, Site 1/2
  amount of niacinamide recovered from tape strip: 1.58 and 2.24 and 1.54 and 1.31 and 4.53 and 5.34 and 2.42 and 6.19 and 0.71 and 6.10
[3]
  amount of niacinamide recovered, Sum 2-10, Avg: 57.16
  amount of niacinamide recovered, Sum 6-10, Avg: 26.76
[4]
  amount of niacinamide recovered, Sum 2-10: 49.17 and 40.65 and 72.98 and 32.23 and 70.46 and 76.77 and 48.95 and 85.20 and 28.48 and 66.67
  amount of niacinamide recovered, Sum 6-10: 23.12 and 19.16 and 30.14 and 12.25 and 40.38 and 38.27 and 21.85 and 35.82 and 15.32 and 31.26
[5]
  amount of niacinamide recovered, Sum 2-10, Avg: 39.48
  amount of niacinamide recovered, Sum 6-10, Avg: 18.59
[6]
  amount of niacinamide recovered, Sum 2-10: 30.09 and 30.15 and 41.32 and 21.97 and 46.79 and 61.02 and 41.20 and 61.08 and 17.87 and 43.34
  amount of niacinamide recovered, Sum 6-10: 15.13 and 14.32 and 17.67 and 8.70 and 22.07 and 32.21 and 18.11 and 25.79 and 10.04 and 21.84
